# Measurements taken from patent US6267972A, “Cosmetic/pharmaceutical compositions comprising β-adrenergic agonists/substance P antagonists” (Societe L'Oreal S.A., priority 1995, dated 2001).
# Counter-ions that a name gives are not always drawn.
# Columns and labels:
# substance P = assay: In vivo functional test, neurogenic inflammation model: antidromic stimulation of the saphenous nerve, Evans blue tissular extravasation
# From the text: The test entailed creating a neurogenic inflammation by the antidromic stimulation of the saphenous nerve in the anaesthetized animal. This nerve innervates the cutaneous regions of the hind paws. The stimulation causes the release from the nerve endings of substance P, which is partially responsible for the neurogenic inflammation. The neurogenic inflammation was quantified by measuring the tissular permeability with Evans blue, a marker for the tissular extravasation of plasma albumin which occurs during inflammation. This reference model was used in the in vivo search for substance P antagonists. […] Dose Effect of Salbutamol in the Antidromic Stimulation Model Presented in Example 1
# sensitive skins = assay: Test with capsaicin: topical application of capsaicin cream, appearance of subjective signs; type: in vivo, human; conditions: 0.05 ml cream with 0.075% capsaicin on approx. 4 cm^2 of skin; subjects with sensitive skins
# Method: In order to determine if a skin is sensitive or not, the assignee hereof has also developed a test.
# The test with capsaicin entails topically applying,. to approximately 4 cm^2 of skin, 0.05 ml of a cream comprising 0.075% of capsaicin and in noting the appearance of subjective signs caused by this application, such as smarting, burning sensations and itching.
# [1] = 1 μmol, Table I, mean of 8 experiments, p < 0.001
compound,measurement,setting,value
Spantide II,% of inhibition,"substance P; 30 nmol, Table I, mean of 8 experiments, p < 0.01",59%
same,% of inhibition,"substance P; Table II, dose 30 nmol, p < 0.01",67%
CC(C)(C)NCC(O)c1ccc(O)c(CO)c1 (centres unmarked) [Salbutamol],% of inhibition,substance P; [1],100%
same,"activity with respect to the release of substance P, dose dependence",substance P; 0.1 to 100 nmol,dose dependent
same,% of inhibition,"substance P; Table II, dose 0.1 nmol, n.s. (not significant)",17%
same,% of inhibition,"substance P; Table II, dose 1 nmol, p < 0.05",65%
same,% of inhibition,"substance P; Table II, dose 10 nmol, p < 0.01",80%
same,% of inhibition,"substance P; Table II, dose 100 nmol, p < 0.01",100%
same,"activity relative to that of the reference molecule, Spantide II",substance P; antidromic stimulation model,approximately 30 times
CC(C)(C)NCC(O)COc1cccc2[nH]c(=O)[nH]c12 (centres unmarked) [CGP12177.HCl],% of inhibition,substance P; [1],77%
same,Concentration (μg/ml of Evans blue),"substance P; 1 μmol, mean of 8 experiments, expressed as Evans blue, n.d.: not detected, control 5.98 ± 0.65",1.37 ± 0.32 µg/mL
CC(C)NCC(O)c1ccc(O)c(O)c1 (centres unmarked) [Isoproterenol],% of inhibition,substance P; [1],100%
COc1cc(CNC(=O)CCCC/C=C/C(C)C)ccc1O [capsaicin],erythema following subjective signs,sensitive skins,followed by the appearance of an erythema
CC(CCc1ccccc1)NC(C)C(O)c1ccc(O)cc1 (centres unmarked) [Nylidrin.HCl],% of inhibition,substance P; [1],95%
